Laboratory results reported in ChEMBL document CHEMBL5724914, “Linking interpersonal differences in gut microbiota composition and drug biotransformation activity” (2024).

Conditions: human gut metagenome, 24 h, 2 µM
Further: call rule not given here.

Bacterial Biotransformation | Structure (SMILES)
Compound NOT metabolized | OCCOCCN1CCN(C2=Nc3ccccc3Sc3ccccc32)CC1 [QUETIAPINE]
Compound NOT metabolized | COc1cc2nc(N3CCN(C(=O)c4ccco4)CC3)nc(N)c2cc1OC [PRAZOSIN]
Compound metabolized | O=C(O)COCCN1CCN(C(c2ccccc2)c2ccc(Cl)cc2)CC1 (stereo not given) [CETIRIZINE]
Compound NOT metabolized | CO[C@]12C[C@@H](COC(=O)c3cncc(Br)c3)CN(C)[C@@H]1Cc1cn(C)c3cccc2c13 [NICERGOLINE]

Assay: (§1) The drug is tested on Z-007 corresponding to rat gut metagenome with ENA study accession number: PRJEB37062 and ENA sample accession number: ERS12561807 for biotransformation under anaerobic condition. The drug concentrations were measured over 9 timepoints collected between 0 and 24 hours of incubation by liquid-chromatography-coupled mass spectrometry (LC–MS)
Conditions: 2 µM

Bacterial Biotransformation | Structure (SMILES)
Compound NOT metabolized | OCCOCCN1CCN(C2=Nc3ccccc3Sc3ccccc32)CC1 [QUETIAPINE]
Compound NOT metabolized | COc1cc2nc(N3CCN(C(=O)c4ccco4)CC3)nc(N)c2cc1OC [PRAZOSIN]
Compound NOT metabolized | O=C(O)COCCN1CCN(C(c2ccccc2)c2ccc(Cl)cc2)CC1 (stereo not given) [CETIRIZINE]
Compound NOT metabolized | CO[C@]12C[C@@H](COC(=O)c3cncc(Br)c3)CN(C)[C@@H]1Cc1cn(C)c3cccc2c13 [NICERGOLINE]

Assay: as §1, with “on WLS-240” for “on Z-007”, “to human” for “to rat”, “number: ERS12561773” for “number: ERS12561807”
Conditions: 2 µM

Bacterial Biotransformation | Structure (SMILES)
Compound metabolized | OCCOCCN1CCN(C2=Nc3ccccc3Sc3ccccc32)CC1 [QUETIAPINE]
Compound metabolized | COc1cc2nc(N3CCN(C(=O)c4ccco4)CC3)nc(N)c2cc1OC [PRAZOSIN]
Compound metabolized | O=C(O)COCCN1CCN(C(c2ccccc2)c2ccc(Cl)cc2)CC1 (stereo not given) [CETIRIZINE]
Compound NOT metabolized | CO[C@]12C[C@@H](COC(=O)c3cncc(Br)c3)CN(C)[C@@H]1Cc1cn(C)c3cccc2c13 [NICERGOLINE]

Conditions: human gut metagenome, 24 h, 2 µM
Remark: another data set of the same source

Bacterial Biotransformation | Structure (SMILES)
Compound metabolized | OCCOCCN1CCN(C2=Nc3ccccc3Sc3ccccc32)CC1 [QUETIAPINE]
Compound metabolized | COc1cc2nc(N3CCN(C(=O)c4ccco4)CC3)nc(N)c2cc1OC [PRAZOSIN]
Compound metabolized | O=C(O)COCCN1CCN(C(c2ccccc2)c2ccc(Cl)cc2)CC1 (stereo not given) [CETIRIZINE]
Compound NOT metabolized | CO[C@]12C[C@@H](COC(=O)c3cncc(Br)c3)CN(C)[C@@H]1Cc1cn(C)c3cccc2c13 [NICERGOLINE]

Assay: as §1, with “on WLS-082” for “on Z-007”, “to human” for “to rat”, “number: ERS12561751” for “number: ERS12561807”
Conditions: 2 µM

Bacterial Biotransformation | Structure (SMILES)
Compound NOT metabolized | OCCOCCN1CCN(C2=Nc3ccccc3Sc3ccccc32)CC1 [QUETIAPINE]
Compound metabolized | COc1cc2nc(N3CCN(C(=O)c4ccco4)CC3)nc(N)c2cc1OC [PRAZOSIN]
Compound metabolized | O=C(O)COCCN1CCN(C(c2ccccc2)c2ccc(Cl)cc2)CC1 (stereo not given) [CETIRIZINE]
Compound NOT metabolized | CO[C@]12C[C@@H](COC(=O)c3cncc(Br)c3)CN(C)[C@@H]1Cc1cn(C)c3cccc2c13 [NICERGOLINE]

Conditions: human gut metagenome, 24 h, 2 µM
Remark: another data set of the same source

Bacterial Biotransformation | Structure (SMILES)
Compound NOT metabolized | OCCOCCN1CCN(C2=Nc3ccccc3Sc3ccccc32)CC1 [QUETIAPINE]
Compound NOT metabolized | COc1cc2nc(N3CCN(C(=O)c4ccco4)CC3)nc(N)c2cc1OC [PRAZOSIN]
Compound metabolized | O=C(O)COCCN1CCN(C(c2ccccc2)c2ccc(Cl)cc2)CC1 (stereo not given) [CETIRIZINE]
Compound NOT metabolized | CO[C@]12C[C@@H](COC(=O)c3cncc(Br)c3)CN(C)[C@@H]1Cc1cn(C)c3cccc2c13 [NICERGOLINE]

Assay: as §1, with “on Z-003” for “on Z-007”, “to pig” for “to rat”, “number: ERS12561803” for “number: ERS12561807”
Conditions: 2 µM

Bacterial Biotransformation | Structure (SMILES)
Compound NOT metabolized | OCCOCCN1CCN(C2=Nc3ccccc3Sc3ccccc32)CC1 [QUETIAPINE]
Compound NOT metabolized | COc1cc2nc(N3CCN(C(=O)c4ccco4)CC3)nc(N)c2cc1OC [PRAZOSIN]
Compound metabolized | O=C(O)COCCN1CCN(C(c2ccccc2)c2ccc(Cl)cc2)CC1 (stereo not given) [CETIRIZINE]
Compound metabolized | CO[C@]12C[C@@H](COC(=O)c3cncc(Br)c3)CN(C)[C@@H]1Cc1cn(C)c3cccc2c13 [NICERGOLINE]

Assay: as §1, with “Z-029” for “Z-007”, “ERS12561828” for “ERS12561807”
Conditions: 2 µM

Bacterial Biotransformation | Structure (SMILES)
Compound NOT metabolized | OCCOCCN1CCN(C2=Nc3ccccc3Sc3ccccc32)CC1 [QUETIAPINE]
Compound NOT metabolized | COc1cc2nc(N3CCN(C(=O)c4ccco4)CC3)nc(N)c2cc1OC [PRAZOSIN]
Compound NOT metabolized | O=C(O)COCCN1CCN(C(c2ccccc2)c2ccc(Cl)cc2)CC1 (stereo not given) [CETIRIZINE]
Compound NOT metabolized | CO[C@]12C[C@@H](COC(=O)c3cncc(Br)c3)CN(C)[C@@H]1Cc1cn(C)c3cccc2c13 [NICERGOLINE]

Conditions: human gut metagenome, 24 h, 2 µM
Remark: another data set of the same source

Bacterial Biotransformation | Structure (SMILES)
Compound NOT metabolized | OCCOCCN1CCN(C2=Nc3ccccc3Sc3ccccc32)CC1 [QUETIAPINE]
Compound NOT metabolized | COc1cc2nc(N3CCN(C(=O)c4ccco4)CC3)nc(N)c2cc1OC [PRAZOSIN]
Compound metabolized | O=C(O)COCCN1CCN(C(c2ccccc2)c2ccc(Cl)cc2)CC1 (stereo not given) [CETIRIZINE]
Compound NOT metabolized | CO[C@]12C[C@@H](COC(=O)c3cncc(Br)c3)CN(C)[C@@H]1Cc1cn(C)c3cccc2c13 [NICERGOLINE]

Conditions: human gut metagenome, 24 h, 2 µM
Remark: another data set of the same source

Bacterial Biotransformation | Structure (SMILES)
Compound metabolized | OCCOCCN1CCN(C2=Nc3ccccc3Sc3ccccc32)CC1 [QUETIAPINE]
Compound metabolized | COc1cc2nc(N3CCN(C(=O)c4ccco4)CC3)nc(N)c2cc1OC [PRAZOSIN]
Compound metabolized | O=C(O)COCCN1CCN(C(c2ccccc2)c2ccc(Cl)cc2)CC1 (stereo not given) [CETIRIZINE]
Compound NOT metabolized | CO[C@]12C[C@@H](COC(=O)c3cncc(Br)c3)CN(C)[C@@H]1Cc1cn(C)c3cccc2c13 [NICERGOLINE]

Conditions: human gut metagenome, 24 h, 2 µM
Remark: another data set of the same source

Bacterial Biotransformation | Structure (SMILES)
Compound NOT metabolized | OCCOCCN1CCN(C2=Nc3ccccc3Sc3ccccc32)CC1 [QUETIAPINE]
Compound NOT metabolized | COc1cc2nc(N3CCN(C(=O)c4ccco4)CC3)nc(N)c2cc1OC [PRAZOSIN]
Compound metabolized | O=C(O)COCCN1CCN(C(c2ccccc2)c2ccc(Cl)cc2)CC1 (stereo not given) [CETIRIZINE]
Compound NOT metabolized | CO[C@]12C[C@@H](COC(=O)c3cncc(Br)c3)CN(C)[C@@H]1Cc1cn(C)c3cccc2c13 [NICERGOLINE]

Assay: as §1, with “on WLS-350” for “on Z-007”, “to human” for “to rat”, “number: ERS12561789” for “number: ERS12561807”
Conditions: 2 µM

Bacterial Biotransformation | Structure (SMILES)
Compound NOT metabolized | OCCOCCN1CCN(C2=Nc3ccccc3Sc3ccccc32)CC1 [QUETIAPINE]
Compound NOT metabolized | COc1cc2nc(N3CCN(C(=O)c4ccco4)CC3)nc(N)c2cc1OC [PRAZOSIN]
Compound metabolized | O=C(O)COCCN1CCN(C(c2ccccc2)c2ccc(Cl)cc2)CC1 (stereo not given) [CETIRIZINE]
Compound NOT metabolized | CO[C@]12C[C@@H](COC(=O)c3cncc(Br)c3)CN(C)[C@@H]1Cc1cn(C)c3cccc2c13 [NICERGOLINE]

Assay: as §1, with “Z-005” for “Z-007”, “to” for “to rat gut”, “ERS12561805” for “ERS12561807”
Conditions: 2 µM

Bacterial Biotransformation | Structure (SMILES)
Compound NOT metabolized | OCCOCCN1CCN(C2=Nc3ccccc3Sc3ccccc32)CC1 [QUETIAPINE]
Compound NOT metabolized | COc1cc2nc(N3CCN(C(=O)c4ccco4)CC3)nc(N)c2cc1OC [PRAZOSIN]
Compound metabolized | O=C(O)COCCN1CCN(C(c2ccccc2)c2ccc(Cl)cc2)CC1 (stereo not given) [CETIRIZINE]
Compound metabolized | CO[C@]12C[C@@H](COC(=O)c3cncc(Br)c3)CN(C)[C@@H]1Cc1cn(C)c3cccc2c13 [NICERGOLINE]

Conditions: human gut metagenome, 24 h, 2 µM
Remark: another data set of the same source

Bacterial Biotransformation | Structure (SMILES)
Compound metabolized | OCCOCCN1CCN(C2=Nc3ccccc3Sc3ccccc32)CC1 [QUETIAPINE]
Compound metabolized | COc1cc2nc(N3CCN(C(=O)c4ccco4)CC3)nc(N)c2cc1OC [PRAZOSIN]
Compound metabolized | O=C(O)COCCN1CCN(C(c2ccccc2)c2ccc(Cl)cc2)CC1 (stereo not given) [CETIRIZINE]
Compound NOT metabolized | CO[C@]12C[C@@H](COC(=O)c3cncc(Br)c3)CN(C)[C@@H]1Cc1cn(C)c3cccc2c13 [NICERGOLINE]

Conditions: human gut metagenome, 24 h, 2 µM
Remark: another data set of the same source

Bacterial Biotransformation | Structure (SMILES)
Compound NOT metabolized | OCCOCCN1CCN(C2=Nc3ccccc3Sc3ccccc32)CC1 [QUETIAPINE]
Compound metabolized | COc1cc2nc(N3CCN(C(=O)c4ccco4)CC3)nc(N)c2cc1OC [PRAZOSIN]
Compound metabolized | O=C(O)COCCN1CCN(C(c2ccccc2)c2ccc(Cl)cc2)CC1 (stereo not given) [CETIRIZINE]
Compound NOT metabolized | CO[C@]12C[C@@H](COC(=O)c3cncc(Br)c3)CN(C)[C@@H]1Cc1cn(C)c3cccc2c13 [NICERGOLINE]

Assay: as §1, with “Z-012” for “Z-007”, “to” for “to rat gut”, “ERS12561812” for “ERS12561807”
Conditions: 2 µM

Bacterial Biotransformation | Structure (SMILES)
Compound NOT metabolized | OCCOCCN1CCN(C2=Nc3ccccc3Sc3ccccc32)CC1 [QUETIAPINE]
Compound NOT metabolized | COc1cc2nc(N3CCN(C(=O)c4ccco4)CC3)nc(N)c2cc1OC [PRAZOSIN]
Compound metabolized | O=C(O)COCCN1CCN(C(c2ccccc2)c2ccc(Cl)cc2)CC1 (stereo not given) [CETIRIZINE]
Compound NOT metabolized | CO[C@]12C[C@@H](COC(=O)c3cncc(Br)c3)CN(C)[C@@H]1Cc1cn(C)c3cccc2c13 [NICERGOLINE]

Assay: as §1, with “on Z-018” for “on Z-007”, “to pig” for “to rat”, “number: ERS12561817” for “number: ERS12561807”
Conditions: 2 µM

Bacterial Biotransformation | Structure (SMILES)
Compound metabolized | OCCOCCN1CCN(C2=Nc3ccccc3Sc3ccccc32)CC1 [QUETIAPINE]
Compound NOT metabolized | COc1cc2nc(N3CCN(C(=O)c4ccco4)CC3)nc(N)c2cc1OC [PRAZOSIN]
Compound NOT metabolized | O=C(O)COCCN1CCN(C(c2ccccc2)c2ccc(Cl)cc2)CC1 (stereo not given) [CETIRIZINE]
Compound metabolized | CO[C@]12C[C@@H](COC(=O)c3cncc(Br)c3)CN(C)[C@@H]1Cc1cn(C)c3cccc2c13 [NICERGOLINE]

Conditions: human gut metagenome, 24 h, 2 µM
Remark: another data set of the same source

Bacterial Biotransformation | Structure (SMILES)
Compound metabolized | OCCOCCN1CCN(C2=Nc3ccccc3Sc3ccccc32)CC1 [QUETIAPINE]
Compound metabolized | COc1cc2nc(N3CCN(C(=O)c4ccco4)CC3)nc(N)c2cc1OC [PRAZOSIN]
Compound metabolized | O=C(O)COCCN1CCN(C(c2ccccc2)c2ccc(Cl)cc2)CC1 (stereo not given) [CETIRIZINE]
Compound metabolized | CO[C@]12C[C@@H](COC(=O)c3cncc(Br)c3)CN(C)[C@@H]1Cc1cn(C)c3cccc2c13 [NICERGOLINE]

Conditions: human gut metagenome, 24 h, 2 µM
Remark: another data set of the same source

Bacterial Biotransformation | Structure (SMILES)
Compound metabolized | OCCOCCN1CCN(C2=Nc3ccccc3Sc3ccccc32)CC1 [QUETIAPINE]
Compound NOT metabolized | COc1cc2nc(N3CCN(C(=O)c4ccco4)CC3)nc(N)c2cc1OC [PRAZOSIN]
Compound metabolized | O=C(O)COCCN1CCN(C(c2ccccc2)c2ccc(Cl)cc2)CC1 (stereo not given) [CETIRIZINE]
Compound NOT metabolized | CO[C@]12C[C@@H](COC(=O)c3cncc(Br)c3)CN(C)[C@@H]1Cc1cn(C)c3cccc2c13 [NICERGOLINE]

Conditions: human gut metagenome, 24 h, 2 µM
Remark: another data set of the same source

Bacterial Biotransformation | Structure (SMILES)
Compound NOT metabolized | OCCOCCN1CCN(C2=Nc3ccccc3Sc3ccccc32)CC1 [QUETIAPINE]
Compound NOT metabolized | COc1cc2nc(N3CCN(C(=O)c4ccco4)CC3)nc(N)c2cc1OC [PRAZOSIN]
Compound metabolized | O=C(O)COCCN1CCN(C(c2ccccc2)c2ccc(Cl)cc2)CC1 (stereo not given) [CETIRIZINE]
Compound NOT metabolized | CO[C@]12C[C@@H](COC(=O)c3cncc(Br)c3)CN(C)[C@@H]1Cc1cn(C)c3cccc2c13 [NICERGOLINE]
